Test results from patent US20220088195A1, “Prevention or mitigation of T-cell bispecific antibody-related adverse effects” (Hoffmann-La Roche Inc., priority 2020, published 2022).

Columns and labels:
SKM-1 tumor cells = experiment: Two-stimulation (ON/OFF) killing assay, PBMCs + CFSE/CTV labelled SKM-1 cells + HLA-A2 WT-1-TCB, FACS; assay type: cell-based, human
Description: FIG. 8. In vitro killing assay set-up and timelines. PBMCs were co-cultured with carboxyfluorescein succinimidyl ester (CFSE) labelled SKM-1 target cells (E:T=5:1) and 10 nM HLA-A2 WT-1-TCB for 20h. Activated PBMCs were washed and restimulated on fresh, CTV labelled SKM-1 target cells (E:T=5:1) and 10 nM HLA-A2 WT-1-TCB in the presence or absence of 100 nM dasatinib.
FIG. 10. SKM-1 target cell viability upon first stimulation with 10 nM HLA-A2 WT-1-TCB in the absence of dasatinib (left) and upon second stimulation with 10 nM HLA-A2 WT-1-TCB in the presence of 100 nM dasatinib (right). Target cell viability was measured by FACS after 44h in the assay of FIG. 8. Dead CFSE labelled SKM-1 cells were gated on positive near infrared (NIR) cells (left side). Dead CTV labelled SKM-1 cells were gated on positive NIR cells (right side).
FIG. 11. HLA-A2 WT-1-TCB dose response for dead CFSE and CTV SKM-1 cells used for first and second stimulation in the presence and absence of dasatinib in the assay of FIG. 8. Mean+/−SEM of 3 donors, two-tailed paired t test (for each concentration), 2 tailed p values: 0.1234 (ns), 0.0332 (*), 0.0021 (**), 0.0002 (***), <0.0001 (****).
To assess whether dasatinib can efficiently prevent TCB-mediated target cell killing by activated T cells, we set up an in vitro killing assay with two stimulation steps, mimicking an ON/OFF switch. […]

CD20+ B cells = experiment: CD19-TCB dependent B cell depletion in blood of humanized NSG mice; assay type: in vivo; conditions: 0.5 mg/kg CD19-TCB i.v. + 50 mg/kg dasatinib p.o. twice per day
Description: FIG. 32. Timelines and dosing schedule of in vivo experiment assessing effect of dasatinib (50 mg/kg) on CD19-TCB induced cytokine release and B cell depletion in humanized NSG mice. Humanized NSG mice were co-treated with 0.5 mg/kg CD19-TCB (i.v.) and 50 mg/kg dasatinib (p.o.) twice per day. Blood was collected by tail vein bleeding at 1.5 hrs, 6 hrs and 48 hrs after treatment with CD19-TCB. At 72 hrs, blood was collected retro-orbitally, before the termination of the experiment. N=4 mice per group.
FIG. 33. […] Representative flow cytometry dot plots of CD20+ B cells gated among human CD45+ cells in the blood (48 hrs) of animals treated with vehicle (A), 0.5 mg/kg CD19-TCB (B), or 0.5 mg/kg CD19-TCB and 50 mg/kg dasatinib (C).
FIG. 34. […] CD20+ B cell count was measured by flow cytometry in the blood of the animals from the experiment described in FIG. 32 at 48 hrs (A) and 72 hrs (B). Mean of n=4 mice+/−SEM. One way ANOVA, Kruskal Wallis test, p-value: 0.1234 (ns), 0.0332 (*), 0.0021 (**), 0.0001 (***), <0.0001 (****).
To verify whether dasatinib can prevent CD19-TCB-induced B cell depletion and cytokine release in vivo, humanized NSG mice were either treated with 0.5 mg/kg CD19-TCB or co-treated with 0.5 mg/kg CD19-TCB and 50 mg/kg dasatinib as illustrated in FIG. 32. To best mimick the pharmacodynamic profile of dasatinib in the clinic and to verify whether the resulting exposure would be sufficient to prevent CD19-TCB-induced T cell cytotoxicity and cytokine release, dasatinib was given per os twice per day.
At 48 hrs and 72 hrs, mice were bled and the CD20+ B cell count was measured by flow cytometry (FIG. 33). […] The half-life of dasatinib in blood of mice being around 6 hrs, the exposure of dasatinib was probably not sufficient to durably prevent CD19-TCB-induced T cell cytotoxicity, leading to partial activity of CD19-TCB.

[1] = 146 patients, 100 mg dasatinib QD; cited from earlier work

SMILES: Cc1nc(Nc2ncc(C(=O)Nc3c(C)cccc3Cl)s2)cc(N2CCN(CCO)CC2)n1 [dasatinib, N-(2-chloro-6-methylphenyl)-2-[[6-[4-(2-hydroxyethyl)-1-piperazinyl]-2-methyl-4-pyrimidinyl]amino]-5-thiazole carboxamide monohydrate]
- CTV labelled SKM-1 cells alive upon second stimulation (SKM-1 tumor cells; 10 nM HLA-A2 WT-1 TCB in the presence of 100 nM dasatinib): 87.6%
- killing of CTV labelled SKM-1 cells (ON/OFF versus ON/ON) (SKM-1 tumor cells; 100 nM dasatinib upon re-stimulation): effectively prevented the killing
- killing of CD20+ B cells by CD19-TCB (B cell count in blood) (CD20+ B cells; 48 hrs, listed as Dasatinib, monohydrate): prevents CD19-TCB dependent B cell depletion until 48 hrs post treatment
- killing of CD20+ B cells by CD19-TCB (B cell count in blood) (CD20+ B cells; 48 hrs, monohydrate): prevented killing
- killing of CD20+ B cells by CD19-TCB (B cell count in blood) (CD20+ B cells; 72 hrs): partially restored
- Cmax [1]: 54.6 ng/mL
- Cmin [1]: 2.61 ng/mL
